EC50 data for one compound are collected here from patent US20080081078A1, “Prevention of Cell Proliferation by Inhibiting Myosin Light Chain Kinase” (The Board of Trustees of the University of Illinois, priority 2006, published 2008).

Structures are written as SMILES. Where two headings read alike, the source gives them in different places.

The subject of this experiment is Mm5MT mouse mammary cancer cells. Description: Annexin V / PI flow cytometry apoptosis assay in Mm5MT cells. The format is cell-based. The protocol: The Mm5MT mouse mammary adenocarcinoma cancer cell line was obtained from American Type Culture Collection (ATCC, Manassas, Va., USA) and was maintained in DMEM medium supplemented with 10% fetal bovine serum (FBS) and 100 U/ml penicillin, 100 μg/ml streptomycin. The MatLy-Lu (MLL) sub-line of the Dunning R-3327 prostate adenocarcinoma (graciously provided by B. Lokeshwar, University of Miami) (Lokeshwar et al., Int. J. Cancer 2002; 98:297-309) was maintained in RPMI1640 medium supplemented with 10% FBS, 250 nM dexamethasone, 100 U/ml penicillin and 100 μg/ml streptomycin.
Mm5MT or MLL cells (200,000 cells per well) were seeded in 6-well dishes one day before drug treatment and cultured as described above. On the day of the experiment, media was changed to DMEM supplemented with 0.5% FBS and the cells were treated with drugs as defined by the specific experimental protocol. ML-7 (Biomol, Plymouth Meeting, Pa.) was incubated with cells for 16 h when used alone. When used in combination with etoposide, ML-7 was added to cells 2 h before adding the indicated concentration of etoposide (Calbiochem, La Jolla, Calif.) and the cells were incubated with ML-7 and etoposide for an additional 16 h. The cells were then treated with trypsin, washed twice with cold PBS and re-suspended in 100 μl of buffer containing 10 mM Hepes, pH 7.4, 140 mM NaCl and 2.5 mM CaCl2 (binding buffer). […] Next, 400 μl of binding buffer was added per sample and the cells were analyzed cytofluorometrically using a Coulter Epics Elite ESP flow cytometer (Ex: 488 nm, Em: 585 nm). At least 10,000 cells were counted per analysis and cells that stained positive for annexin V and PI were judged to be apoptotic.
Cells were grown in culture dishes in Dulbecco's Modified Eagle Medium (Gibco BRL, Gaithersburg, Md.) supplemented with 10% FBS and 1% penicillin and streptomycin. […] The floating and attached cells were combined and analyzed using conventional methods.
To quantify apoptosis, cells were washed twice with cold PBS, resuspended in 100 μl of 10 mM Hepes, pH 7.4, 140 mM NaCl, 2.5 mM CaCl2 (Binding Buffer). […] After incubation, 400 μl of binding buffer was added per sample and cells were analyzed cytofluorimetrically using a Coulter Epics Elite ESP flow cytometer (excitation wavelength: 488 nm, emission wavelength: 585 nm). At least 10,000 cells were counted per analysis and cells that stained positive for Annexin V and PI were considered apoptotic.
The combined effects of ML-7 and etoposide to induce apoptosis in mouse Mm5MT mammary cancer cells was determined by pre-treating cells with vehicle (FIG. 9, open bar) or 10 μM ML-7 (shaded bar) for 2 h. Varying concentrations of etoposide (1-1000 μM) were then added and apoptosis was quantified 16 h later. […]

For `COc1cc([C@@H]2c3cc4c(cc3[C@@H](O[C@@H]3O[C@@H]5CO[C@@H](C)O[C@H]5[C@H](O)[C@H]3O)[C@H]3COC(=O)[C@H]23)OCO4)cc(OC)c1O` [etoposide], the EC50 is around 300 µM (etoposide alone, extrapolation (FIG. 8), read-out: concentration of etoposide required to induce apoptosis in 50% of the cells); 572 µM (minus ML-7, curve fitting (FIG. 9), read-out: concentration of etoposide required for inducing apoptosis in 50% of the cells); 25.4 µM (plus 10 μM ML-7 (2 h pre-treatment), curve fitting (FIG. 9), read-out: concentration of etoposide required for inducing apoptosis in 50% of the cells); around 20 µM (plus ML-7 (10 μM), extrapolation (FIG. 8), read-out: concentration of etoposide required to induce apoptosis in 50% of the cells).
